Patent US9409952B2, “Peptide-compound cyclization method” (Chugai Seiyaku Kabushiki Kaisha, priority 2011, dated 2016)
Starred links: 1 amine or outer side, 2 acyl side, 3 side chain; linkers in the order of their positions; H or OH if unused. Positions of bridges follow the written chain, without caps; N, C: chain ends. Non-standard residues stand in square brackets, D forms with d. Residues, ends and D or L forms follow the SMILES beside them. *: point of attachment. Phe(4-(CH2)5CO) = O=C([C@H](Cc1ccc(CCCCCC(=O)[*:3])cc1)N[*:1])[*:2]; Phe(3-(CH2)4CO) = O=C([C@H](Cc1cccc(CCCCC(=O)[*:3])c1)N[*:1])[*:2]; NMeF = CN[C@@H](Cc1ccccc1)C(=O)O; NMeI = CC[C@H](C)[C@H](NC)C(=O)O; NMeL = CN[C@@H](CC(C)C)C(=O)O; NMeV = CN[C@H](C(=O)O)C(C)C; NMeA = CN[C@@H](C)C(=O)O; Piperidide = C1CCN(*)CC1; Sar = CNCC(=O)O

Legend:
[1] = PAMPA (parallel artificial membrane permeability assay); format: in vitro ADME; details: PAMPA; membrane permeation rate (Pe); 50 mM MOPSO buffer pH 6.5 with 5.0% glycocholic acid, 37° C., 18 hours; read-out: iPAMPA Pe
Outline: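 Artificial membrane was 10% (w/v) egg lecithin plus 0.5% (w/v) cholesterol in dodecane on a PVDF filter. A 10 mM DMSO stock was added at 0.5% (v/v) to donor buffer (50 mM MOPSO, pH 6.5, 5.0% glycocholic acid). After 18 h at 37 °C, LC/MS or LC/UV gave donor and acceptor levels for Pe.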

[2] = Metabolic stability in human hepatic microsome; format: in vitro ADME; details: microsomes, pH 7.4; human hepatic microsome, NADPH(+); read-out: CL NADPH(+)

| SMILES | Papp at 18 hours, 50 µM [1] [×10⁻⁶ cm/s] | microsomal CLint at 1 uM [2] [µL/min/mg] |
| --- | --- | --- |
| CC[C@H](C)[C@@H]1NC(=O)[C@H](CC(C)C)N(C)C(=O)[C@H](Cc2ccccc2)N(C)C(=O)[C@H](CC(C)C)NC(=O)CCCCCc2ccc(cc2)C[C@@H](C(=O)N2CCCCC2)NC(=O)[C@H](C)N(C)C(=O)[C@H](C)N(C)C(=O)CN(C)C(=O)[C@H]([C@@H](C)O)NC(=O)[C@H](Cc2ccccc2)N(C)C(=O)[C@H](C(C)C)N(C)C1=O [DP-875] (L[NMeF][NMeL]I[NMeV][NMeF]T[Sar][NMeA][NMeA][Phe(4-(CH2)5CO)]-Piperidide; lactam N-11) | 19 | 34 |
| CC[C@H](C)[C@@H]1NC(=O)CCCCc2cccc(c2)C[C@@H](C(=O)N2CCCCC2)NC(=O)[C@H](C)N(C)C(=O)[C@H](CC(C)C)N(C)C(=O)CN(C)C(=O)[C@H]([C@@H](C)O)NC(=O)[C@H](Cc2ccccc2)N(C)C(=O)[C@H](CC(C)C)N(C)C(=O)[C@H](C)NC(=O)[C@H](C(C)C)N(C)C(=O)[C@H](Cc2ccccc2)N(C)C1=O [DP-876] (I[NMeF][NMeV]A[NMeL][NMeF]T[Sar][NMeL][NMeA][Phe(3-(CH2)4CO)]-Piperidide; lactam N-11) | 55 | 103 |
| CC[C@H](C)[C@H]1C(=O)N[C@@H](CC(C)C)C(=O)N(C)[C@@H](C)C(=O)N(C)[C@@H](Cc2ccccc2)C(=O)NCC(=O)N[C@@H]([C@@H](C)O)C(=O)N[C@@H](Cc2ccccc2)C(=O)N(C)[C@@H](CC(C)C)C(=O)N2CCC[C@H]2C(=O)N[C@H](C(=O)N2CCCCC2)Cc2cccc(c2)CCCCC(=O)N[C@@H](CC(C)C)C(=O)N1C [DP-877] (L[NMeI]L[NMeA][NMeF]GTF[NMeL]P[Phe(3-(CH2)4CO)]-Piperidide; lactam N-11) | 4.6 | 43 |
| CC[C@H](C)[C@H]1C(=O)N[C@H](C(=O)N2CCCCC2)Cc2ccc(cc2)CCCCCC(=O)N[C@@H]([C@@H](C)O)C(=O)N(C)[C@@H](Cc2ccccc2)C(=O)N[C@@H](CC(C)C)C(=O)N2CCC[C@H]2C(=O)N[C@@H](C(C)C)C(=O)N[C@@H](Cc2ccccc2)C(=O)N(C)CC(=O)N[C@@H](CC(C)C)C(=O)N[C@@H](C)C(=O)N1C [DP-878] (T[NMeF]LPVF[Sar]LA[NMeI][Phe(4-(CH2)5CO)]-Piperidide; lactam N-11) | 23 | 152 |
| CC[C@H](C)[C@H]1C(=O)N[C@H](C(=O)N2CCCCC2)Cc2ccc(cc2)CCCCCC(=O)N[C@@H](CC(C)C)C(=O)N2CCC[C@H]2C(=O)N[C@@H](C(C)C)C(=O)N[C@@H](Cc2ccccc2)C(=O)N(C)CC(=O)N[C@@H](CC(C)C)C(=O)N[C@@H](C)C(=O)N1C [DP-879] (LPVF[Sar]LA[NMeI][Phe(4-(CH2)5CO)]-Piperidide; lactam N-9) | 35 | 239 |
| C=C1CCC(=O)N[C@@H](CC(C)C)C(=O)N2CCC[C@H]2C(=O)N(C)[C@@H](C(C)C)C(=O)N[C@@H](Cc2ccccc2)C(=O)N(C)CC(=O)N(C)[C@@H](CC(C)C)C(=O)N[C@@H](C)C(=O)N(C)[C@@H]([C@@H](C)CC)C(=O)N[C@H](C(=O)N2CCCCC2)Cc2ccc1cc2 [DP-880] | 34 | 490 |
| CC(C)C[C@@H]1NC(=O)CCCCCc2ccc(cc2)C[C@@H](C(=O)N2CCCCC2)NC(=O)[C@H](Cc2ccccc2)N(C)C(=O)[C@H](CC(C)C)N(C)C(=O)CN(C)C(=O)[C@H]([C@@H](C)O)NC(=O)[C@H](C)N(C)C(=O)[C@H](C(C)C)N(C)C(=O)[C@H](C)NC(=O)[C@H](CC(C)C)N(C)C(=O)[C@H](Cc2ccccc2)N(C)C1=O [DP-881] (L[NMeF][NMeL]A[NMeV][NMeA]T[Sar][NMeL][NMeF][Phe(4-(CH2)5CO)]-Piperidide; lactam N-11) | 6.8 | 83 |
| C=C1CCC(=O)N[C@@H](CC(C)C)C(=O)N(C)[C@@H]([C@@H](C)CC)C(=O)N(C)[C@@H](CC(C)C)C(=O)NCC(=O)N(C)[C@@H](C)C(=O)N[C@@H](Cc2ccccc2)C(=O)N[C@@H]([C@@H](C)O)C(=O)N(C)[C@@H](CC(C)C)C(=O)N[C@@H](Cc2ccccc2)C(=O)N(C)[C@@H](C(C)C)C(=O)N[C@H](C(=O)N2CCCCC2)Cc2cccc1c2 [DP-882] | 1.8 | 32 |
